Reference: ChEMBL document CHEMBL1124765, “Synthesis and biological properties of novel phosphotriesters: a new approach to the introduction of biologically active nucleotides into cells” (J Med Chem, 1990)

Assay: pKa value was determined
Type: physicochemical

Row | Structure (SMILES) | pKa
1 | CC(=O)O[C@H]1C[C@H](n2cc(C)c(=O)[nH]c2=O)O[C@@H]1COP(=O)(OC[C@H]1O[C@@H](n2cc(C)c(=O)[nH]c2=O)C[C@@H]1OC(C)=O)Oc1ccc(S(C)(=O)=O)cc1 | 7.83
2 | CC(=O)O[C@H]1C[C@H](n2cc(C)c(=O)[nH]c2=O)O[C@@H]1COP(=O)(OC[C@H]1O[C@@H](n2cc(C)c(=O)[nH]c2=O)C[C@@H]1OC(C)=O)Oc1ccc(Cl)cc1 | 9.38
3 | CSc1ccc(OP(=O)(OC[C@H]2O[C@@H](n3cc(C)c(=O)[nH]c3=O)C[C@@H]2OC(C)=O)OC[C@H]2O[C@@H](n3cc(C)c(=O)[nH]c3=O)C[C@@H]2OC(C)=O)cc1 | 9.53
4 | CC(=O)O[C@H]1C[C@H](n2cc(C)c(=O)[nH]c2=O)O[C@@H]1COP(=O)(OC[C@H]1O[C@@H](n2cc(C)c(=O)[nH]c2=O)C[C@@H]1OC(C)=O)Oc1cc(Cl)ccc1Cl | 7.5
